Assay results reported in patent publication US20230220327A1, “SERPIN PRODUCTION” (SOCIETE DES PRODUITS NESTLE S.A., priority 2019, published 2023).
Entries after “also recorded” stand apart in the source; their conditions may differ. No end group written: not given here.

Legend:
[1] = test system: B. longum subsp. longum strains; experiment: serpin protein levels (ELISA) in B. longum subsp. longum strains; assay type: cell-based, Bifidobacterium longum subsp longum
Experimental: (§1) 48-well microtiter plate with pH sensor and dissolved oxygen (DO) sensor were used to culture the strains in Biolector (m2p-labs Aachen, Germany). It was continuously shaken to prevent bacteria aggregation for 8 h. Cultures were harvested by centrifugation and supernatant was removed. Pellet was resuspended in PBS supplemented with halt protease inhibitor (Sigma) and lysed using glassbeads. Lysate containing both soluble and insoluble material was then collected.
(§2) Total protein content was measured using Pierce BCA kit (Thermofisher) and serpin protein concentration was determined using ELISA.
The serpin encoding gene and its surrounding is highly conserved within the B. longum subsp. longum species. Strains of B. longum subsp. longum were selected to represent the entire span of the genetic phylogenetic tree (Table 2). […] Obtained pellets were further analyzed for total and serpin protein content (see example 1).
Serpin is furthermore conserved within a restricted number of Bifidobacteria species (Turroni, F. et al. Characterization of the serpin-encoding gene of Bifidobacterium breve 210B. Appl Environ Microbiol 76, 3206-3219, doi:10.1128/AEM.02938-09 (2010)). […] Obtained pellets were further analyzed for total and serpin protein content (see example 1).

B. longum NCC 2705 = experiment: serpin protein levels (ELISA) in B. longum NCC 2705 grown on different carbohydrates; assay type: cell-based, Bifidobacterium longum subsp longum
Experimental: B. longum strain CNCM 1-2618 (NCC 2705) was grown in Biolector (growth conditions—anaerobic, 37 00) in MRS+5 mM L-cysteine (MRSc) base without sugar, to which different carbohydrates were added.
as §1, §2
B. longum NCC 2705 was cultured in Biolector (as described in Example 1) in a base of MRSc without sugar, with the addition of different glucose & galactose ratios, to a final concentration of 1%. Cultures were collected after 18 h of growth and analyzed for total & serpin protein levels (as described in Example 1).
B. longum NCC 2705 was grown on an MRSc base without sugar, with addition of different commercially available galactooligosaccharides (GOS) at different concentrations. […] Obtained pellets were analyzed for total and serpin protein content (see Example 1). […]

[2] = test system: B. longum subsp. longum strains; experiment: growth of B. longum subsp. longum strains on galactose as sole carbohydrate source; assay type: cell-based, Bifidobacterium longum subsp longum; conditions: 1% galactose, MRSc base without sugar
Experimental: The serpin encoding gene and its surrounding is highly conserved within the B. longum subsp. longum species. Strains of B. longum subsp. longum were selected to represent the entire span of the genetic phylogenetic tree (Table 2). All strains were cultured in Biolector (according to example 1) in a MRSc base without sugar, to which 1% glucose, 1% galactose or a mix of glucose & galactose (respectively 0.2 & 0.8%) was added. Cultures were grown for 18 h and harvested. Obtained pellets were further analyzed for total and serpin protein content (see example 1).

B. breve ATCC 15700 (T) = experiment: serpin protein levels (ELISA) in B. breve; assay type: cell-based; conditions: 18 h (FIG. 7)
Experimental: as §1, §2
(§3) Serpin is furthermore conserved within a restricted number of Bifidobacteria species (Turroni, F. et al. Characterization of the serpin-encoding gene of Bifidobacterium breve 210B. Appl Environ Microbiol 76, 3206-3219, doi:10.1128/AEM.02938-09 (2010)). Strains belonging to these species (Table 3) were cultured in Biolector (see example 1) in a MRSc base without sugar, to which 1% glucose, 1% galactose was added. […] Cultures were grown for 18 h and harvested. Obtained pellets were further analyzed for total and serpin protein content (see example 1).

[3] = test system: B. longum subsp. suis ATCC 27533 (T); experiment: serpin protein levels (ELISA) in B. longum subsp suis; assay type: cell-based; conditions: 1% galactose, 18 h (FIG. 7)
Experimental: as §1, §2, §3

[4] = test system: B. longum subsp. infantis ATCC 15697 (T); experiment: serpin protein levels (ELISA) in B. longum subsp infantis; assay type: cell-based; conditions: 1% galactose, 18 h (FIG. 7)
Experimental: as §1, §2, §3

transglutaminase 2 (TG2) = target: T1, transglutaminase 2 (TG2) (Homo sapiens, UniProt P21980); conditions: in-vitro; inhibits deamidation of 33-mer gliadin peptide (McCarville et al. 2015); cited from earlier work
T1 sequence (P21980 1-687): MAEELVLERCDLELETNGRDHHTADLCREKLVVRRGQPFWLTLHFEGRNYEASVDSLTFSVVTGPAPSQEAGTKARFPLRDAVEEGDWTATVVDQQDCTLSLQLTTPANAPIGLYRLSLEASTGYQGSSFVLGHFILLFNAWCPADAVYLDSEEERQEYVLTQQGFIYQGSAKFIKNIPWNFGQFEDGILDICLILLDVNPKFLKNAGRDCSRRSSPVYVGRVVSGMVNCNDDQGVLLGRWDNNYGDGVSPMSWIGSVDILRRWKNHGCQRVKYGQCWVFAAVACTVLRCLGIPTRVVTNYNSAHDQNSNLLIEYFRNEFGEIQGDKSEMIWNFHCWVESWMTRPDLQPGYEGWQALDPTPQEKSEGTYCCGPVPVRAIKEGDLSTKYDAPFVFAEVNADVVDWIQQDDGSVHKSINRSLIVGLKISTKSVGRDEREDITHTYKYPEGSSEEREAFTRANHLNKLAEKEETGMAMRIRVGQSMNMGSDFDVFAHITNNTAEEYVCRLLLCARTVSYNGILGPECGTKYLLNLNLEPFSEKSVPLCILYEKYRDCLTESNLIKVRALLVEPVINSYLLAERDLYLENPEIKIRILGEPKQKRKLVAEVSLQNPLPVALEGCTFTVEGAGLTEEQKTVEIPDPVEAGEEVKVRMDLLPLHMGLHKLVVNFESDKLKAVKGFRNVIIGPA

[5] = test system: mouse model of gluten sensitivity; conditions: elafin delivered by a recombinant Lactococcus lactis (Galipeau et al., 2014); cited from earlier work
[6] = test system: various forms of elastases and proteinase; conditions: Ying & Simon, 1993; cited from earlier work

For O=C[C@H](O)[C@@H](O)[C@@H](O)[C@H](O)CO [galactose], the serpin protein levels ([1]; 1% galactose or 0.2% glucose & 0.8% galactose vs 1% glucose, 18 h (FIGS. 5-7)) was “increased in all B. longum subsp. longum strains; also recorded: significant serpin protein increase”, the “production of serpin in the presence of glucose” value (B. longum NCC 2705; different glucose & galactose ratios, final concentration 1%, 18 h, only when glucose is depleted during fermentation (FIG. 2)) was “can induce production of serpin” and the serpin protein levels (B. longum NCC 2705; grown for 8 h in MRSc base without sugar plus carbohydrate, compared to all other sugars tested (FIG. 1)) was “increase”. For the same molecule, the “ability to grow on galactose as sole carbohydrate source” value [2] was “Not all strains of B. longum subsp. longum were able to grow”, the serpin induction (B. breve ATCC 15700 (T); 1% galactose) was “none of the B. breve ATCC 15700 (T), B. longum subsp infantis nor B. longum subsp suis strains were induced” and the serpin induction [3] was “neither induced by galactose”. For the same molecule, the serpin induction [4] was “neither induced by galactose”.

For “Elafin: human serine protease inhibitor (AQEPVKGPVSTKPGSCPIILIRCAMLNPPNRCLKDTDCPGIKKCCEGSCGMACFVPQ; ends and bridges not checked; cysteine pairing not given here; UniProt P19957 61-117, looked up)”, the “inhibition of transglutaminase 2 (TG2)” value (transglutaminase 2 (TG2)) is given as “moderately inhibits”, the “gluten-induced pathology and intestine inflammation” value [5] is given as “reduce gluten-induced pathology and normalise intestine inflammation” and the “inhibitory capacity against elastases and proteinase” value [6] is given as “potent inhibitory capacity”.

B1: Papain: papain (from Worthington), previously demonstrated to induce serpin in B. breve (protein, UniProt P00784 134-345, looked up)
Papain: IPEYVDWRQKGAVTPVKNQGSCGSCWAFSAVVTIEGIIKIRTGNLNEYSEQELLDCDRRSYGCNGGYPWSALQLVAQYGIHYRNTYPYEGVQRYCRSREKGPYAAKTDGVRQVQPYNEGALLYSIANQPVSVVLEAAGKDFQLYRGGIFVGPCGNKVDHAVAAVGYGPNYILIKNSWGTGWGENGYIRIKRGTGNSYGVCGLYTSSFYPVKN
With B1 the serpin levels ([1]; 0.05 mg/ml papain on top of 1% glucose, 18 h (FIG. 7)) was “did not increase serpin levels” and the serpin levels (B. breve ATCC 15700 (T); 0.05 mg/ml papain on top of 1% glucose) was “did in the B. breve ATCC 15700 (T) strain”.
